Literature values as cited in patent US4946853A, “Method for the treatment of withdrawal symptoms associated with smoking cessation and preparations for use in said method” (priority 1987, dated 1990).

Assays:
[1] = within one hour of first smoking; 60 min
[2] = oral nicotine administration
[3] = in vivo

SMILES: CN1CCCC1c1cccnc1 (stereo not drawn) [nicotine]
- normal plasma trough level associated with usual smoking [1]: 5 to 15 ng/mL
- gastrointestinal upsets [2]: susceptibility of the patient to gastrointestinal upsets
- absorption by the percutaneous route [3]: high degree of absorption
